The results in this text go back to patent US20250352541A1, “THERAPEUTIC FOR CANCER REFRACTORY TO IMMUNE CHECKPOINT INHIBITOR” (Sumitomo Pharma Co., Ltd., priority 2022, published 2025).

SMILES strings stand for the structures.

CHK1, sequence (O14757 whole entry): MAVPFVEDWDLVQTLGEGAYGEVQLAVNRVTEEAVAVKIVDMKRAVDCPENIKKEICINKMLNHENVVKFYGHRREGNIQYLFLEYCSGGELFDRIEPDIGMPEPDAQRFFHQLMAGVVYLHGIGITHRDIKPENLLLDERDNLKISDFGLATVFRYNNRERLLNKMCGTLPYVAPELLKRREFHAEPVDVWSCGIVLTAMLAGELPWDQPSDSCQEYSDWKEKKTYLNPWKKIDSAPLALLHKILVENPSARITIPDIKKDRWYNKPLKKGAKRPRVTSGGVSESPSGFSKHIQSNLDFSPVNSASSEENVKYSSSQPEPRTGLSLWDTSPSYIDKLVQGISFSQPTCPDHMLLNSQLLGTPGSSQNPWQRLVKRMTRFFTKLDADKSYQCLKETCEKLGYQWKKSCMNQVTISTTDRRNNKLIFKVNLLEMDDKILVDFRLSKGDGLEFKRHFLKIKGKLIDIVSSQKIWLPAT

This assay addresses CHK1 (Homo sapiens (Human), UniProt O14757). The assay can be described thus: CHK1 inhibitory activity test (IMAP TR-FRET). A general note: TR-FRET usually uses a lanthanide donor and a delayed reading to cut background.
What is called IC50 is the concentration needed to halve the response being measured. Read a high IC50 as lower potency. In the case of `N#Cc1cnc(Nc2cc(-c3c(OCF)cncc3OCCCN)[nH]n2)cn1` [Example 24, 5-({5-[3-(3-aminopropoxy)-5-(fluoromethoxy)pyridin-4-yl]-1H-pyrazol-3-yl}amino)pyrazine-2-carbonitrile], the IC50 was 0.3 nM and the “effect of suppressing CHK1 activity compared with prexasertib” value (shortened to “effect … compared with prexasertib”) is “more potent effect of suppressing CHK1 activity than prexasertib”. On to `COc1cncc(OCC[C@H](C)N)c1-c1cc(Nc2cnc(C#N)cn2)n[nH]1` [Example 10, 5-[(5-{3-[(3S)-3-aminobutoxy]-5-methoxypyridin-4-yl}-1H-pyrazol-3-yl)amino]pyrazine-2-carbonitrile], for which the IC50 was found to be 0.3 nM and the “effect … compared with prexasertib” value was “more potent effect of suppressing CHK1 activity than prexasertib”. The like results for `COc1cc(Cl)nc(OCCCN)c1-c1cc(Nc2cnc(C#N)cn2)n[nH]1` [Example 2, 5-({5-[2-(3-aminopropoxy)-6-chloro-4-methoxypyridin-3-yl]-1H-pyrazol-3-yl}amino)pyrazine-2-carbonitrile] were, in that order, 0.22 nM and “more potent effect of suppressing CHK1 activity than prexasertib”. The like results for `COc1cncc(OCC[C@@H](C)N)c1-c1cc(Nc2cnc(C#N)cn2)n[nH]1` [Example 9, 5-[(5-{3-[(3R)-3-aminobutoxy]-5-methoxypyridin-4-yl}-1H-pyrazol-3-yl)amino]pyrazine-2-carbonitrile] were, in that order, 0.24 nM and “more potent effect of suppressing CHK1 activity than prexasertib”. `COc1cncc(O[C@H](C)C2(O)CNC2)c1-c1cc(Nc2cnc(C#N)cn2)n[nH]1` [Example 34, 5-[(5-{3-[(1R)-1-(3-hydroxyazetidin-3-yl)ethoxy]-5-methoxypyridin-4-yl}-1H-pyrazol-3-yl)amino]pyrazine-2-carbonitrile] returned an IC50 of 1.82 nM. In the case of `COc1nccc(OCC2(O)CNC2)c1-c1cc(Nc2cnc(C#N)cn2)n[nH]1` [Example 7, 5-[(5-{4-[(3-hydroxyazetidin-3-yl)methoxy]-2-methoxypyridin-3-yl}-1H-pyrazol-3-yl)amino]pyrazine-2-carbonitrile], 0.21 nM corresponded to half-maximal inhibition (IC50) and the “effect … compared with prexasertib” value is “more potent effect of suppressing CHK1 activity than prexasertib”. Turning to `COc1cncc(OC[C@@H](O)CN)c1-c1cc(Nc2cnc(C#N)cn2)n[nH]1` [Example 14, 5-[(5-{3-[(2S)-3-amino-2-hydroxypropoxy]-5-methoxypyridin-4-yl}-1H-pyrazol-3-yl)amino]pyrazine-2-carbonitrile], the IC50 stood at 0.22 nM and the “effect … compared with prexasertib” value is listed as “more potent effect of suppressing CHK1 activity than prexasertib”. Take `COc1cncc(OCC2CNC2)c1-c1cc(Nc2cnc(C#N)cn2)n[nH]1` [Example 18, 5-({5-[3-(azetidin-3-yl)methoxy-5-methoxypyridin-4-yl]-1H-pyrazol-3-yl}amino)pyrazine-2-carbonitrile]: the IC50 was 0.51 nM and the “effect … compared with prexasertib” value is recorded as “more potent effect of suppressing CHK1 activity than prexasertib”.
